Patent US6403594B1, “Benzopyran derivatives” (Recordati, S.A. Chemical and Pharmaceutical Company, priority 1999, dated 2002)
pKi: −log10 of the molar value.

Tests used:
[1] = target: T1, α1d-adrenoceptor (recombinant) (Homo sapiens, UniProt P25100); experiment: Radioligand binding, cloned α1d-adrenoceptor ([3H]prazosin); details: read-out: Affinity for recombinant α1d-adrenoceptor, cloned receptors (Ki)
T1 sequence (P25100 1-572): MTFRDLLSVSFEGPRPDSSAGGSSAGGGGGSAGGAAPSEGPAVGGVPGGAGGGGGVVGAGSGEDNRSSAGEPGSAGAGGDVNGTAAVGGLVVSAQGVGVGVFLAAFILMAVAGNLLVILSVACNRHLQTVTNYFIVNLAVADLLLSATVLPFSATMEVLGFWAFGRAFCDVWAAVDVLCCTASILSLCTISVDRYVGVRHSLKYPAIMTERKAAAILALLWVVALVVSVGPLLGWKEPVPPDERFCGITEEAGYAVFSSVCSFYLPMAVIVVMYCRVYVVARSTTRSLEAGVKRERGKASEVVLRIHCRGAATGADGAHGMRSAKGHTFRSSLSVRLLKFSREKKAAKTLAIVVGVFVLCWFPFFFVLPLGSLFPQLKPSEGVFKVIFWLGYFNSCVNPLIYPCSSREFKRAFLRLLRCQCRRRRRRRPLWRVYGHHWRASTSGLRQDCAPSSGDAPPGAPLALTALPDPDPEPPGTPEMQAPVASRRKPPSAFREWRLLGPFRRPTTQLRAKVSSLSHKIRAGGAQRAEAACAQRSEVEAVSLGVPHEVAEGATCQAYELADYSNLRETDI

[2] = system: prostatic urethral pressure increase induced by noradrenaline; experiment: Inhibition of urethral contractions induced by noradrenaline in anaesthetised dogs after i.v. administration; assay type: in vivo, dog; details: for UC ID50: active dose inhibiting by 50% the urethral contractions induced by noradrenaline: i.v. administration; for DBP/UC ratio between the active doses: i.v., DBP ED25 / UC ID50
Procedure: (§1) The experiments were performed according to the method of Imagawa J. et al., J. Pharmacol. Methods 22: 103-111, 1989, with substantial modifications, as follows: adult male beagle dogs, weighing 8-10 kg, were anaesthetised with pentobarbital sodium (30 mg/kg i.v. and 2 mg/kg/h i.v.), intubated and spontaneously ventilated with room air. In order to monitor systemic blood pressure (BP), a polyethylene (PE) catheter was introduced into the aortic arch through the left femoral artery. A collateral of the left femoral vein was cannulated for infusion of anaesthetic, and the right femoral vein was cannulated for administration of compounds. For intra-arterial (i.a.) injection of noradrenaline (NA), a PE catheter was introduced into the lower portion of the abdominal aorta via the right external iliac artery. Through such procedure, NA was selectively distributed to the lower urinary tract. A paramedian vertical suprapubic incision extending from the base of the pelvis to the mid-abdominal region was made and the bladder and prostate were exposed. The bladder was manually emptied with a syringe. Prostatic urethral pressure was monitored with a Mikro-tip catheter (5F) introduced into the bladder via the external urethral meatus, and withdrawn until the pressure transducer was positioned in the prostatic region of the urethra. A ligature was secured between the neck of the bladder and urethra to isolate the response of the latter and to avoid any interaction with the bladder. Another ligature was put around the Mikro-tip catheter at the external meatus, to secure the catheter itself. After a stabilising period following the surgical procedure (30 minutes), in which arterial and prostatic urethral pressure were continuously monitored as basal values, i.a. administration of NA was made at intervals of 20 minutes. The doses of NA chosen were such to produce an increase of at least 100% in urethral pressure. The test compounds were administered i.v. in a cumulative manner with intervals of 15-20 minutes between administrations. I.a. injections of NA were repeated 5 minutes after every dosing of test compound with intervals of about 10 minutes between stimulations. In order to compare the effects of the administered compound, dose/response curves (log dose transformation) were constructed by computing, at the peak effect, the percent decrease in diastolic blood pressure and the percent inhibition of the increase in urethral pressure induced by NA.

[3] = target: T2, α1L adrenoceptor (Oryctolagus cuniculus, UniProt O02824); experiment: Functional antagonism of noradrenaline-induced contractions of rabbit aorta pretreated with chloroethylclonidine; assay type: biochemical; details: NA-induced contractions of rabbit aorta pretreated with chloroethylclonidine
T2 sequence (O02824 1-466): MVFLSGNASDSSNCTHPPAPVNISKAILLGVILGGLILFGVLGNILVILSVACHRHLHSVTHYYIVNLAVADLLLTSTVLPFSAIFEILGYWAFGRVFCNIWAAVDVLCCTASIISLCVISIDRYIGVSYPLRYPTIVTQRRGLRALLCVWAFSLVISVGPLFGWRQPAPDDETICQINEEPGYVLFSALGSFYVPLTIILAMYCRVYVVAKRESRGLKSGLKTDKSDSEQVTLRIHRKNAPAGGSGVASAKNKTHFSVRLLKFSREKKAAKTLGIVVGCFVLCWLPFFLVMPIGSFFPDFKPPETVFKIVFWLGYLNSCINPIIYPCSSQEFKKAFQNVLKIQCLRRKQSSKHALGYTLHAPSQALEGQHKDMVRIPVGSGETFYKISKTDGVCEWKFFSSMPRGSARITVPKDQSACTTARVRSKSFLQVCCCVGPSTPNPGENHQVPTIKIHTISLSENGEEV
Procedure: Adult male New Zealand rabbits were sacrificed by cervical dislocation. The aorta was removed, placed in Krebs-Henseleit buffer and dissected free of adhering tissue. […] Desmethylimipramine (0.1 μm) and corticosterone (1 μM) to block neuronal and extraneuronal uptake of NA, (±)-propranol (1 μM) to block β adrenoceptors and yohimbine (0.1 μM) to block α2 adrenoceptors, were added to the buffer.
The preparations were allowed to equilibrate for 60 minutes and then primed every thirty minutes with 10 μM NA for three times. The aortic rings were then incubated with the alkylating agent chloroethylclonidine (5×10^−5 M) for 30 minutes and then washed extensively three times (in 0.5 hours) before constructing the NA-concentration/response curve. After washout of NA and re-equilibration of the tissue (45 minutes), the drug to be tested was added and, after 30 minutes, a second NA-cumulative-concentration/response curve constructed.
Each antagonist concentration was tested using 2-3 aortic rings from different rabbits.
Dose ratios (i.e., the ratio between the concentrations of NA required to produce half-maximal response in the presence and in the absence of the test antagonist) were calculated for each concentration of the compounds. The logarithm of these dose ratio-1 was plotted against the logarithm of the compound concentrations (Schild plot) to evaluate the affinity constant Kb.
When only one or two concentrations of the test compounds were utilised, the apparent Kb value was calculated using the formula: Kb=[B]/(DOSE RATIO-1), where B is the antagonist concentration.

[4] = system: diastolic blood pressure; experiment: Lowering of diastolic blood pressure in anaesthetised dogs after i.v. administration; assay type: in vivo, dog
Procedure: as §1

Row | SMILES | pKi [1] | UC ID50: active dose inhibiting by 50% the urethral contractions induced by noradrenaline [2] [mg/kg] | DBP/UC ratio between the active doses [2] | Functional affinity for the α1L adrenoceptor subtype, pKb [3] | DBP ED25: active dose lowering diastolic blood pressure by 25% [4] [mg/kg]
1 | CCOC(=O)c1oc2c(C(=O)NCCCN3CCN(c4cc(Cl)ccc4OC)CC3)cccc2c(=O)c1C [Example 4, 2-Ethoxycarbonyl-8-{3-[4-(5-chloro-2-methoxyphenyl)-1-piperazinyl]-propylcarbamoyl}-3-methyl-4-oxo-4H-1-benzopyran] | 8.56 | 0.0023 | 71.0 | 8.47 | 0.1633
2 | COc1ccc(Cl)cc1N1CCN(CCCNC(=O)c2cccc3c(=O)c(C)c(C(N)=O)oc23)CC1 [Example 1, 2-Carbamoyl-8-{3-[4-(5-chloro-2-methoxyphenyl)-1-piperazinyl]-propylcarbamoyl}-3-methyl-4-oxo-4H-1-benzopyran] | 7.24 | 0.0118 | 234.7 | 8.27 | 2.769
